Data: US20120058983A1, “Adenosine A1 agonists for the treatment of glaucoma and ocular hypertension” (BAYER PHARMA AKTIENGESELLSCHAFT, priority 2010, published 2012)

Key:
[1] = system: rabbits; settings: rabbits (Lit. 6,7,8); cited from earlier work
[2] = system: cynomolgus monkeys; settings: cynomolgus monkeys (Lit. 9); cited from earlier work
[3] = system: Wistar rats; test: IOP measurements in rats (topical administration to the eye; IOP and hemodynamic parameters); format: in vivo, rat
Protocol: Wistar rats with a body weight of about 300 g were anesthetized with isoflurane (2-3% in O2:N2O=1:2). The test compounds were diluted in 0.9% sodium chloride and given by topical administration to the eye in 10 μl volume at a concentration of 10 mg/ml. IOP was measured with a rebound tonometer (TonoLab) at different time points after application of the drugs. Ocular pressure and effects of hemodynamic parameters can be monitored in this model.
N^6-Cyclopentyl-Adenosine and Example 1 reduce IOP at a volume of 10 μl (concentration 10 mg/ml).

SMILES	intraocular pressure [1]	intraocular pressure [2]	effects on mean arterial blood pressure / hemodynamic parameters ([3]; Wistar rats, 10 mg/ml (FIG. 2))	IOP ([3]; anesthetized Wistar rats, 10 μl volume, concentration 10 mg/ml, rebound tonometer (FIG. 1))
OC[C@H]1O[C@@H](n2cnc3c(NC4CCCCC4)ncnc32)[C@H](O)[C@@H]1O [CHA, N6-cyclohexyl-adenosine]	lower intraocular pressure	lower intraocular pressure		
OC[C@H]1O[C@@H](n2cnc3c(NC4CCCC4)ncnc32)[C@H](O)[C@@H]1O [N^6-Cyclopentyl-Adenosine]			significantly reduces blood pressure	reduce IOP
C[C@H](Cc1ccccc1)Nc1ncnc2c1ncn2[C@@H]1O[C@H](CO)[C@@H](O)[C@H]1O [R-PIA, R(−)-N-6-(2-phenylisopropyl)adenosine]	lower intraocular pressure	lower intraocular pressure		
